# B1: DKK1: protein from R & D Systems added at doses known to inhibit Wnt binding Lrp receptors (protein, UniProt O94907 32-266, looked up)
# Dickkopf-related protein 1: TLNSVLNSNAIKNLPPPLGGAAGHPGSAVSAAPGILYPGGNKYQTIDNYQPYPCAEDEECGTDEYCASPTRGGDAGVQICLACRKRRKRCMRHAMCCPGNYCKNGICVSSDQNHFRGEIEETITESFGNDHSTLDGYSRRTTLSSKMYHTKGQEGSVCLRSSDCASGLCCARHFWSKICKPVLKEGQVCTKHRRKGSHGLEIFQRCYCGEGLSCRIQKDHHQASNSSRLHTCQRH
# Test system: C3H10T1/2 embryonic mesenchymal stem cells
# Test: Adipogenesis of mesenchymal stem cells in adipogenic medium (adiponectin, PPARγ immunoblots, lipid granules)
# Assay type: cell-based
# Procedure: C3H10T1/2 embryonic mesenchymal stem cells were maintained in growth medium (α-MEM, 10% FBS, 100 µg/ml penicillin/streptomycin). Cells were plated at a density of 6,000-10,000 cells per cm^2 in collagen-I coated silicone membrane plates and cultured for two days before loading protocols began. Adipogenic medium included 0.1 μM dexamethasone, 5 μg/ml insulin, and in some cases, 50 μM indomethcin. If noted, MSC wee transfected with siRNA (100 nm) in serum-free OptiMEM overnight before replacing the medium. Multi-potential medium contained 50 μg/ml ascorbic acid, 1 μM β-glycerophosphate, 10 nM dexamethasone, nM all trans-retinoic acid, 5 μg/mi insulin, 0.5 mM 3-isobutyl-1-methylxanthine (IBMX).
# Low Intensity Vibration (LIV): To deliver LIV to cultured MSC, an amplified loudspeaker generated controlled 90 Hz 0.6 g (where 1.0 g is Earth's gravitational field, or […]) standing wave accelerations/decelerations through the wells of culture dishes. Dishes were removed from the incubator during the loading periods (up to three times per day) and set on the lab-bench (control) or, for LIV, on the loudspeaker.
# Western blotting: Details were as in Sen, et al. (Endocrinology 42:6065-6075 (2008)). Antibodies included those directed against active β-catenin (Upstate, Temecula, CA), total […] (BD, Bedford, MA), total-GSK3β Chemicon, Billerica, MA), aP2, PPARγ, adiponectin, COX2, NFATc1 and tubulin (Santa Cruz, CA). Densitometry was determined using NIH ImageJ, 1.37v.
# Histochemical Staining: After fixation in 2% formaldehyde, cells were rinsed before staining for cytoplasmic triglyceride droplets with oil-red-O.
molecule,measurement,setting,value
O=C1NC(=O)C(c2ccccc2[N+](=O)[O-])=C1Nc1ccc(O)c(Cl)c1 [SB415286],effect on adipogenesis,MSC in adipogenic medium,prevention of adipogenesis
same,effect on adipogenesis when β-catenin is knocked down,MSC with siRNA targeting β-catenin (+siCat),blocked by targeting β-catenin
COc1ccc2c(c1)c(CC(=O)O)c(C)n2C(=O)c1ccc(Cl)cc1 [indonethacin],time to adipogenesis (rate of adipogenesis) after addition to adipogenic media,"added to adipogenic media, without it 7-8 days",4 to 5 days
B1,effect on LIV's ability to inhibit adipogenesis,added to LIV treated cultures at doses known to inhibit Wnt binding Lrp receptors,failed to block LIV's ability to inhibit adipogenesis
